{"source": "paper PMC3968170", "about": "(PLoS Pathogens, 2014)", "key": {"HitS ICD": {"molecular_target": "T1, HitS ICD (Bacillus anthracis, UniProt Q81RT2)", "T1 construct": "gene GBAA_1956", "T1 sequence (Q81RT2 74-351 limits assumed)": "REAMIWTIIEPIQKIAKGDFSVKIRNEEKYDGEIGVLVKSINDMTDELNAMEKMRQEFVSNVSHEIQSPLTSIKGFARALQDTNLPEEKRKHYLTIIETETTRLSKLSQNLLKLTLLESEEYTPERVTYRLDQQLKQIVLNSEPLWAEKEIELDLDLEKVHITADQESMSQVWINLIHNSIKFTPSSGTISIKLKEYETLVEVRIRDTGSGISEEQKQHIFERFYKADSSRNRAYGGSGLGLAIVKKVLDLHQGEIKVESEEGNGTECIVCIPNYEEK", "conditions": "5 uM kinase, 37 C, 30 min; labelled compound"}, "HssS ICD": {"molecular_target": "T2, HssS ICD (Bacillus anthracis, UniProt A0AAC8N8V0)", "T2 construct": "gene BA_3260", "T2 sequence (A0AAC8N8V0 189-458 limits assumed)": "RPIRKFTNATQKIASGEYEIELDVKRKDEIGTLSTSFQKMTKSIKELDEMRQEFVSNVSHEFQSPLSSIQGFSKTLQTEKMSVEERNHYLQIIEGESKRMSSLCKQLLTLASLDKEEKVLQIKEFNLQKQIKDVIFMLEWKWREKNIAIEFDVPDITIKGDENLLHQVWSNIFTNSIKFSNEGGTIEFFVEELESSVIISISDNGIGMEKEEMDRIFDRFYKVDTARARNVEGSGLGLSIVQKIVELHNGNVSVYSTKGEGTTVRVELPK", "conditions": "5 uM kinase, 37 C, 30 min; labelled compound"}}, "data": [{"compound": "Nc1ncnc2c1ncn2[C@@H]1O[C@H](COP(=O)(O)OP(=O)(O)OP(=O)(O)O)[C@@H](O)[C@H]1O", "note": "[ATP]", "values": [{"measurement": "autophosphorylation, SDS-PAGE and phosphorimager", "setting": "HitS ICD", "result": "Both HKs autophosphorylate in the presence of ATP"}, {"measurement": "autophosphorylation, SDS-PAGE and phosphorimager", "setting": "HssS ICD", "result": "Both HKs autophosphorylate in the presence of ATP"}]}]}
